Series [1] concerns the target T1, Xanthine oxidase (XO) (Bos taurus, UniProt P80457). Nature of the series: Determination of xanthine oxidase activity (UV, 290 nm). Format: biochemical, cow.
Procedure: Xanthine oxidase activity was determined following a previously reported method [20]. The test compounds were dissolved in DMSO, and the resulting solutions were appropriately diluted for the assay. Xanthine oxidase and xanthine solutions with concentrations of 0.04 U/mL and 0.1 mmol/L, respectively, were prepared using 0.2 mol/L phosphate buffered solution (PBS, pH 7.4) as the solvent. An aliquot of the test solution (0.1 ml) with various concentrations was added separately to XO solution (0.2 ml). The resulting solution was well mixed and incubated for 5 min at 298 K. Then, the substrate (xanthine) solution was pipetted into the mixture to initiate the enzymatic reaction, and the OD value of the resulting solution was recorded every 60 s at 290 nm using a UV spectrometer (UV 2550, SHIMADZU) at 298 K. Xanthine oxidase activity was determined without adding an inhibitor and was considered 100%. […] Each test was performed three times (n = 3). The equation for calculating the relative activity (RA) of XO is as follows: RA (%) = R i/R c × 100%, where R i and R c represent the reaction rates of the solution with and without inhibitors, respectively. The IC50 value was calculated based on the plot of RA versus inhibitor concentration.
Series [2] has as its system mice. Nature of the series: NOEL estimated for mice from rat value. It is filed as in vivo.
Series [3] deals with rats. Particulars: cited from earlier work.
The target of series [4] is xanthine oxidase (XO). On the set-up: method as in doi:10.2991/efood.k.190802.004. Particulars: read-out: IC50 (XO inhibition); cited from earlier work.
For series [5] the following is noted: cited from earlier work.
For series [6], the target named is xanthine oxidase (XO). Particulars: read-out: IC50 (XO inhibition); cited from earlier work.
Series [7] concerns the target T1, Xanthine oxidase (XO). Nature of the series: Fluorescence titration (quenching) assay. It is filed as binding, cow. The conditions noted are these: for Kq (quenching rate constant): τ0 10^−8 s. The procedure:
An aliquot of XO solution (2.0 ml, 0.04 U/mL) was placed in a quartz cuvette (1 cm) and titrated with 0.1 ml EA solution (0.1 mmol/L) each time. The mixture was then placed in a thermostatic bath, and after 5 min, fluorescence spectra ranging from 290 to 500 nm (excitation: 280 nm) were recorded at 298, 304 and 310 K using the FS5 spectrofluorometer (Edinburgh Instruments, England). The fluorescence background was corrected by subtracting the PBS blank. Additionally, to account for EA's UV absorption, all fluorescence data were corrected according to the following equation: (4) Fc=Fme^A1+A2/2
Here, F m and F c represent the measured and corrected fluorescence, respectively, and A1 and A2 denote EA UV absorbance at 280 nm (excitation wavelength) and 404 nm (emission wavelength), respectively.
The Stern‐Volmer equation shown below was used to distinguish the quenching mechanism. (5) F0/F=1+Kqτ0[Q]=1+Ksv[Q]
The fluorescence intensities with and without EA are indicated by the symbols F and F 0, respectively. The quenching rate constant of the biological macromolecule is represented by K q . The average lifetime of fluorophore is represented by the symbol τ0 (10^−8 s). K SV is the dynamic quenching constant of Stern–Volmer; [Q] is the concentration of EA. […] Then K SV values at 298, 304 and 310 K were calculated to be 1.881 × 10^5, 1.661 × 10^5, and 1.455 × 10^5 L/mol, respectively, using the Stern‐Volmer equation. […] Similarly, the K q values at 298, 304 and 310 K were determined to be 1.881 × 10^13, 1.661 × 10^13, and 1.455 × 10^13 L/(mol·s), respectively.
(6) logF0−F/F=logKa+nlog[Q]
To determine the interaction forces between EA and XO, such as hydrogen bonding, hydrophobic interaction, van der Waals force, and electrostatic force, thermodynamic parameters including […], and Gibbs free energy (△G) were analysed using the Van't Hoff Equation (7) and Gibbs‐Helmholtz Equation (8) at different temperatures. The equations are as follows: (7) logKa=−∆H/2.303RT+∆S/2.303R (8) ∆G=∆H−T∆S

Series [8] addresses xanthine oxidase (XO). On the set-up: method as in PMID 2393948. Particulars: read-out: IC50 (XO inhibition); cited from earlier work.
For series [9], the system named is PO-induced hyperuricemia mouse model. Nature of the series: PO-induced hyperuricemic mouse model, serum uric acid. It is filed as in vivo, ICR mice. Particulars: mice. As to the method: ICR mice weighing 25 ± 2 g were purchased from Wushi Dongwu Co., LTD (Fujian, China). The protocol for animal experiments (#202030) was approved by the Animal Use and Care Committee of Putian University. To establish a hyperuricemic mouse model, we followed our previously reported method, which involved intraperitoneal injection of PO at a dose of 250 mg/kg. […] Mice in all groups except the CG were given PO to raise serum uric acid levels, while the CG mice were given 1 ml of 0.9% NaCl. […] After 2 hours, blood was obtained from the tail vein and was centrifuged at 4000 rpm for 8 min. The serum obtained was kept at −80 °C for the following assay.

Series [10] has as its target xanthine oxidase (XO). More on the design: method as in PMID 29567192. The conditions noted are these: fluorescence quenching technology; read-out: IC50 (XO inhibition); cited from earlier work.
Series [11] addresses T1, Xanthine oxidase (XO). Nature of the series: Kinetic analysis of XO inhibition (Lineweaver-Burk). Format: biochemical, cow. As to the method: Here, [S] and [I] represent the substrate (xanthine) and inhibitor (EA) concentrations, respectively. The reaction rate and maximum reaction rate are represented by ν and Vmax, respectively. K i and K is indicate the inhibition constants of EA binding with the free XO and XO‐xanthine complex, respectively. The Michaelis‐Menten constant is denoted by the symbol K m . The type of inhibition exerted by EA on XO was determined using Equation (1).

Series [12] has as its target xanthine oxidase (XO). On the set-up: method as in PMID 15234783. The conditions noted are these: read-out: IC50 (XO inhibition); cited from earlier work.
Where [13] appears, read: Van't Hoff equation, 298, 304 and 310 K.

Read-outs that look alike come from different tables or passages of the source.

T1 sequence (P80457 whole entry): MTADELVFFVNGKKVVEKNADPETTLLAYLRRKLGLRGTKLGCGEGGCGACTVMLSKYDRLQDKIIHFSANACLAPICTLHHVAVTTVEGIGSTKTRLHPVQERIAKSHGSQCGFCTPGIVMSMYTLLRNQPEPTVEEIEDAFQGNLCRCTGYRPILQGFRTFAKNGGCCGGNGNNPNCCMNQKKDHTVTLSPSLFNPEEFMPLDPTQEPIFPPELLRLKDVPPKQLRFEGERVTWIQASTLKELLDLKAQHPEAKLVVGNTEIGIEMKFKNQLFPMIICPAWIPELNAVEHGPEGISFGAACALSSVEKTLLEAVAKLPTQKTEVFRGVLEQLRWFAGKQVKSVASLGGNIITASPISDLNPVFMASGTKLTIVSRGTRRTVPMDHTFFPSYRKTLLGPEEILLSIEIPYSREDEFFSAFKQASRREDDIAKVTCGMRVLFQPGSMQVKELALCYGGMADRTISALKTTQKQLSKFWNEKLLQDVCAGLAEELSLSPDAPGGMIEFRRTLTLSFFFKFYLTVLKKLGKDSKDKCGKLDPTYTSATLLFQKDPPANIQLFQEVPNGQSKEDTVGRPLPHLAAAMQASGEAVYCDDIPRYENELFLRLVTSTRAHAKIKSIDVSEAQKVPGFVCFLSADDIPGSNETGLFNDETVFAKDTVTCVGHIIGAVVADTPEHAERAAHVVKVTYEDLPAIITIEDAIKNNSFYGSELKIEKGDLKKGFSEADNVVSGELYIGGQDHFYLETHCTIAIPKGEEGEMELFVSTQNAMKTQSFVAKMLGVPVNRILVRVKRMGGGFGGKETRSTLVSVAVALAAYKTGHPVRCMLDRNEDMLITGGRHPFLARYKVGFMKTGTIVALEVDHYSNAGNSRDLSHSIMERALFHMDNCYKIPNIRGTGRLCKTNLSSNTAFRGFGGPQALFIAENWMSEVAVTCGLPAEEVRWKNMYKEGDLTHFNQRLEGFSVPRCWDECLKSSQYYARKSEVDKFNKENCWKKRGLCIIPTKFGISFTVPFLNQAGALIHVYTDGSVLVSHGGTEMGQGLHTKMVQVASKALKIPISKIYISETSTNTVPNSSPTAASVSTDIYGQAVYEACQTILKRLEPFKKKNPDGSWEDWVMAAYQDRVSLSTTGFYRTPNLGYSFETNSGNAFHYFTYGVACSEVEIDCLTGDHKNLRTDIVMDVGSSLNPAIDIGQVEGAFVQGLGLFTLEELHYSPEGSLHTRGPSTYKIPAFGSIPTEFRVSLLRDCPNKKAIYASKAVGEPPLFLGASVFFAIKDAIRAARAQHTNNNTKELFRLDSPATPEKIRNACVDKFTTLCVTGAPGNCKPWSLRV

What is called IC50 is the point on the concentration scale where inhibition reaches its midpoint. One may read the Ki as a measure of affinity in units of concentration, obtained from inhibition or displacement. For the compound `O=c1oc2c(O)c(O)cc3c(=O)oc4c(O)c(O)cc1c4c23` [EA, Ellagic acid], the IC50 was 22.97 ± 0.12 µM in series [1] (T = 298 K, pH 7.4, [xanthine] = 0.1 mmol/L, [XO] = 0.04 U/mL, read-out: IC50 (XO inhibition)); 18 µM in series [4]; 166 µM in series [6]; 3.1 µM in series [8]; 6.5 µM in [10]; 71.5 µM in series [12]. Moreover, in series [1] (plots of ν versus [XO], [xanthine] = 0.1 mmol/L), the “Reversibility of XO inhibition” value is “reversible inhibitor”. The “NOEL, estimated value for mice” value in series [2] is given as 4215 mg/kg/day. In [3] (rat, in vivo), the “Safe dietary supplement dose” value is recorded as at most 3011 mg/kg/day. The “Safe dietary supplement level” value in series [3] (rat, in vivo) is recorded as “up to 5%”. In addition, the “no-observed-effect level (NOEL)” value in [3] (rats) is 3011 mg/kg/day. For the same compound, the Bioavailability entry in [5] is reported as “very poor”. For the same compound, the Permeability result in [5] is on record as “limited”. Moreover, in [5], the Solubility result is “low”. The Fluorescence quenching mechanism entry in [7] is listed as “static quenching”. For the same compound, the “KSV (Stern-Volmer dynamic quenching constant)” value in [7] (298 K) turned out to be 188100 L/mol; in series [7] (304 K), 166100 L/mol; in series [7] (310 K), 145500 L/mol. The figures for the Ksv in series [7] (298 K), in series [7] (304 K) and in series [7] (310 K) were 1.881 ± 0.05 ×10^5 L/mol, 1.661 ± 0.03 ×10^5 L/mol and 1.455 ± 0.04 ×10^5 L/mol, respectively. Also, the “n (number of binding sites)” value in series [7] (298 K) stood at 1.183 ± 0.02; in series [7] (304 K), 1.236 ± 0.04; in [7] (310 K) it was 1.308 ± 0.02. Moreover, the “△G” value in series [7] (298 K) is -24.07 ± 0.28 kJ/mol; in series [7] (304 K) it was -24.09 ± 0.32 kJ/mol; in series [7] (310 K), -24.11 ± 0.34 kJ/mol. In addition, the “Kq (quenching rate constant)” value is 1.881e+13 M⁻¹ s⁻¹ in [7] (298 K), 1.661e+13 M⁻¹ s⁻¹ in [7] (304 K) and 1.455e+13 M⁻¹ s⁻¹ in [7] (310 K). In addition, the “XO fluorescence intensity decreased to” value in series [7] (EA […] μmol/L, 404 nm, Ex 280 nm) came to 14.15%. Further, the “△H” value in series [7] (setting [13]) was -23.07 ± 0.25 kJ/mol. Further, in series [7] (setting [13]), the “△S” value is 3.36 ± 0.03 J/mol/K. Further, the Serum uric acid in series [9] (160 mg/kg intragastrically after PO 250 mg/kg i.p., MG 6.18 ± 0.18) was 5.09 ± 0.57 mg/dL; in series [9] (320 mg/kg intragastrically after PO 250 mg/kg i.p., MG 6.18 ± 0.18), 4.19 ± 0.53 mg/dL; in series [9] (480 mg/kg intragastrically after PO 250 mg/kg i.p., MG 6.18 ± 0.18), 2.87 ± 0.41 mg/dL. The “Type of inhibition on XO” value in series [11] (Lineweaver-Burk plot) is “mixed‐type inhibitor”. Also, the “Kis (inhibition constant, binding with XO-xanthine complex)” value in [11] ([XO] = 0.04 U/mL, xanthine 6.25 to 50 μmol/L) was 57.24 ± 0.23 µmol/L. Moreover, the inhibitory constant (Ki) in [11] ([XO] = 0.04 U/mL, xanthine 6.25 to 50 μmol/L, read-out: Ki (inhibition constant, binding with free XO)) is 10.6 ± 0.08 µM.
Consider `Oc1ncnc2[nH]ncc12` [allopurinol, reference compound], for which the Serum uric acid in series [9] (20 mg/kg intragastrically after PO 250 mg/kg i.p., MG 6.18 ± 0.18, CG 2.16 ± 0.51) worked out at 2.01 ± 0.34 mg/dL.

The values are drawn from publication PMC10288352 (IET Nanobiotechnology, 2023).
